Holding throughout (assay): growth of human tumour cells (NCI), 48 h
Experiment [1] concerns HCC-2998 colon.
Experiment [2] relates to A549 NSCLC.
The subject of experiment [3] is UACC-62 melanoma.
For experiment [4], the system named is LOX IMVI melanoma.
The subject of experiment [5] is SK-OV-3 ovarian.
In experiment [6] the test system is SNB-19 CNS.
For experiment [7], the system named is A498 renal.
Experiment [8] deals with MDA-MB-435.
The test system of experiment [9] is MDA-MB-231 breast.
Experiment [10] deals with IGROV1 ovarian.
In experiment [11] the test system is OVCAR-5 ovarian.
Experiment [12] has as its system K-562 leukemia.
The subject of experiment [13] is NCI-H226 lung.

Structures are written as SMILES.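 How tested: cells in 96-well plates exposed to compound for 48 hours at five concentrations. The concentration for full growth arrest is given as TGI.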

As for `CCOC(=O)c1[nH]n(-c2ccccc2)c(=O)c1C=NC(=S)C(N)=S`, the TGI in experiment [1], in [2], in [3], in [4], in [5] and in experiment [6] was more than 100 µM throughout. In addition, the TGI in [7], in [8], in experiment [9], in experiment [10], in experiment [11] and in [12] was more than 100 µM each time. This compound also returned a TGI in [13] of more than 100 µM.

Regarding `C[N+](C)(N)Cc1csc(-c2ccc(Cl)cc2)n1`, the TGI in experiment [1], in [2], in [3], in [4], in experiment [5] and in experiment [6] was more than 100 µM each time. Besides, the TGI in [7], in experiment [8], in experiment [9], in [10], in [11] and in [12] was more than 100 µM each time. In [13], this compound gave a TGI of more than 100 µM.

Consider `COC(=O)C1=C2Nc3ccccc3C23CCN2C(O)C4(CC5CC67CCOC6CCN6CCC8(c9cccc(OC)c9N(C4)C58O)C67)C4OCCC4(C1)C23` (stereo unspecified), for which the TGI in [1], in [2], in experiment [3], in experiment [4], in experiment [5] and in experiment [6] was more than 100 µM each time. Besides, the TGI is more than 100 µM in experiment [7]; more than 100 µM in experiment [8]; 61.3 µM in [9]; more than 100 µM in [10]; more than 100 µM in experiment [11]; more than 100 µM in [12]. This compound displayed a TGI in [13] of more than 100 µM.

Turning to `Nc1ccc(S(=O)(=O)c2ccc(N=[N+]([O-])c3ccc(S(=O)(=O)c4ccc(N)cc4)cc3)cc2)cc1`, the TGI was more than 100 µM in [1]; more than 100 µM in experiment [2]; more than 100 µM in experiment [3]; more than 100 µM in [4]; more than 90.6 µM in [5]; more than 72.3 µM in [6]. Besides, the TGI was more than 85.1 µM in [7]; more than 100 µM in experiment [8]; more than 78.1 µM in [9]; more than 100 µM in experiment [10]; more than 100 µM in experiment [11]; more than 100 µM in experiment [12]. This compound also registered a TGI in experiment [13] of 92.2 µM.

`COc1ccc(CCNC(=S)/N=C\C2=C(O)c3ccccc3C2=O)cc1OC`: the TGI in experiment [1], in [2], in experiment [3], in experiment [4], in experiment [5] and in experiment [6] was more than 100 µM throughout. Also, the TGI in experiment [7], in [8], in [9], in experiment [10], in experiment [11] and in experiment [12] was more than 100 µM in each case. Further, the TGI in experiment [13] is more than 100 µM.

As for `Cn1c2cc(Cl)ccc2c2ccc3c(c21)C(=O)C=CC3=O`, the TGI is more than 100 µM in experiment [1]; more than 100 µM in [2]; more than 31.6 µM in experiment [3]; more than 100 µM in experiment [4]; more than 100 µM in [5]; more than 100 µM in experiment [6]. Further, the TGI is more than 100 µM in experiment [7]; more than 60.1 µM in [8]; more than 68.6 µM in experiment [9]; more than 63.1 µM in [10]; more than 100 µM in experiment [11]; 11.4 µM in experiment [12]. The TGI in experiment [13] is more than 100 µM.

For `CN1CCN(c2ccc3nc(-c4ccc5nc(-c6ccc(N(C)CCCl)cc6)[nH]c5c4)[nH]c3c2)CC1`, the TGI in experiment [1] amounted to 1.88 µM; in experiment [2], 10.1 µM; in experiment [3] it was 1.05 µM; in experiment [4], 0.218 µM; in experiment [5], 1.2 µM; in experiment [6] it was 1.01 µM. For the same compound, the TGI in experiment [7] is 6.74 µM; in [8], 0.281 µM; in experiment [9] it was 22.3 µM; in experiment [10], 0.391 µM; in experiment [11], 12.4 µM; in experiment [12] it was 1.16 µM. Moreover, the TGI in [13] is 5.2 µM.

`CC1(C)OCC(C2OC(=O)C(OCc3ccccc3)=C2OCc2ccccc2)O1` (stereo unspecified): the TGI in [1], in experiment [2], in [3], in [4], in [5] and in [6] was more than 100 µM in each case. Besides, the TGI in experiment [7] was 90.5 µM; in experiment [8], 79.4 µM; in experiment [9], more than 100 µM; in experiment [10], more than 100 µM; in experiment [11], more than 100 µM; in experiment [12], more than 100 µM. The TGI in experiment [13] is more than 100 µM.

Regarding `COc1ccc(CCN2CCOCC2)cc1`, the TGI in experiment [1], in experiment [2], in experiment [3], in [4], in [5] and in [6] was more than 100 µM each time. Besides, the TGI in experiment [7], in experiment [8], in experiment [9], in [10], in experiment [11] and in experiment [12] was more than 100 µM each time. This compound gave a TGI in experiment [13] of more than 100 µM.

As to `FC(F)(F)c1nc2cc(SSc3cc4nc(C(F)(F)F)[nH]c4cc3Cl)c(Cl)cc2[nH]1`, the TGI in [1], in experiment [2], in experiment [3], in [4], in [5] and in experiment [6] was more than 100 µM in each case. In addition, the TGI in experiment [7], in [8], in [9], in [10], in [11] and in experiment [12] was more than 100 µM each time. The compound further showed a TGI in experiment [13] of more than 100 µM.

In the case of `O=C(Nc1ccc(Cl)cc1)c1cc(S(=O)(=O)NC2=NC(c3ccccc3)c3cc(Cl)ccc3N2)c(SSc2cc(Cl)c(C(=O)Nc3ccc(Cl)cc3)cc2S(=O)(=O)NC2=NC(c3ccccc3)c3cc(Cl)ccc3N2)cc1Cl` (stereo unspecified), the TGI in experiment [1], in experiment [2], in [3], in experiment [4], in experiment [5] and in experiment [6] was more than 100 µM each time. In addition, the TGI in [7], in experiment [8], in experiment [9], in [10], in [11] and in experiment [12] was more than 100 µM in each case. In [13], the TGI is more than 100 µM.

As for `OC(C1CCCC1=N/N=C1/CCCC1C(O)(C(F)(F)Cl)C(F)(F)Cl)(C(F)(F)Cl)C(F)(F)Cl` (stereo unspecified), the TGI in [1], in [2], in [3], in experiment [4], in experiment [5] and in experiment [6] was more than 10 µM throughout. In addition, the TGI in experiment [7], in experiment [8], in experiment [9], in experiment [10], in experiment [11] and in experiment [12] was more than 10 µM in each case. The compound further showed a TGI in experiment [13] of more than 10 µM.

For the origin of these results see PubChem BioAssay (NCI).
